This passage reports Activity and viability results from ChEMBL document CHEMBL4052804, “Design and synthesis of piperazine acetate podophyllotoxin ester derivatives targeting tubulin depolymerization as new anticancer agents” (Bioorg Med Chem Lett, 2017).

Active and inactive are the calls of the source. No cut-off for these calls is given here.

Assay [1] relates to MCF7. Kind of assay: Cell cycle arrest in human MCF7 cells assessed as accumulation at G2/M phase at 0.9 uM after 12 hrs by propidium iodide staining based flow cytometric method (reference value: 5.43 to 13.68%). Format: functional. In general terms: Flow cytometry measures light scatter and fluorescence of single cells or particles in a stream.
Assay [2] relates to MCF7. Kind of assay: Induction of apoptosis in human MCF7 cells assessed as viable cells at 2 uM after 24 hrs by Annexin-V-FITC/propidium iodide staining based flow cytometric method (reference value: 91.6 to 92.7%). Format: functional. The conditions noted are these: MCF7, 24 h, read-out: Activity.
Assay [3] concerns MCF7. Kind of assay: Cell cycle arrest in human MCF7 cells assessed as accumulation at S phase at 0.3 uM after 12 hrs by propidium iodide staining based flow cytometric method (reference value: 27.63 to 32.34%). Format: functional.
Assay [4] relates to MCF7. Nature of the assay: Induction of apoptosis in human MCF7 cells assessed as late apoptotic cells at 8 uM after 24 hrs by Annexin-V-FITC/propidium iodide staining based flow cytometric method (reference value: 2 to 3.7%). Format: functional.
Assay [5] relates to MCF7. Kind of assay: Down regulation of cyclin A expression in human MCF7 cells at 0.5 to 2 uM after 24 hrs by Western blot analysis. Format: functional, cell-based. In general terms: In western blotting, separated proteins are transferred to a membrane and probed.
Assay [6] concerns MCF7. Nature of the assay: Induction of apoptosis in human MCF7 cells assessed as viable cells at 8 uM after 24 hrs by Annexin-V-FITC/propidium iodide staining based flow cytometric method (reference value: 91.6 to 92.7%). It is filed as functional. The conditions noted are these: MCF7, 24 h, read-out: Activity.
Assay [7] deals with MCF7. Nature of the assay: Cell cycle arrest in human MCF7 cells assessed as accumulation at G2/M phase at 0.6 uM after 16 hrs by propidium iodide staining based flow cytometric method (reference value: 7.59 to 9.58%). Format: functional.
In assay [8] the test system is MCF7. Kind of assay: Cell cycle arrest in human MCF7 cells assessed as accumulation at S phase at 0.6 uM after 8 hrs by propidium iodide staining based flow cytometric method (reference value: 29.55 to 32.22%). Format: functional.
In assay [9] the test system is MCF7. Nature of the assay: Cell cycle arrest in human MCF7 cells assessed as accumulation at S phase at 0.6 uM after 4 hrs by propidium iodide staining based flow cytometric method (reference value: 29.55 to 32.22%). Format: functional.
Assay [10] deals with MCF7. Nature of the assay: Cell cycle arrest in human MCF7 cells assessed as accumulation at G2/M phase at 0.6 uM after 8 hrs by propidium iodide staining based flow cytometric method (reference value: 7.59 to 9.58%). It is filed as functional.

On to `COc1cc([C@@H]2c3cc4c(cc3[C@H](OC(=O)CN3CCN(c5ccc(Cl)c(Cl)c5)CC3)[C@H]3COC(=O)[C@H]23)OCO4)cc(OC)c1OC`, for which the Activity with MCF7 [1] is 81.03%; in the assay with MCF7 [3] it was 24.21%; with MCF7 [4] it was 14%; in the assay with MCF7 [7], 85.57%; with MCF7 [8] it was 26.13%; in the assay on MCF7 [9], 23.99%. Besides, the Activity in the assay on MCF7 [10] is on record as 44.13%. For the same compound, in the assay with MCF7 [2], the viability at 2 µM turned out to be 81.2%. Also, in the assay with MCF7 [5], the result was Active. For the same compound, in the assay on MCF7 [6], the viability at 8 µM was 67.9%.
